Source: US4314989A, “Methionine sulfoxide amflioration of acetaminophen toxicity” (priority 1980, dated 1982)

Experiments:
hamsters [1] = experiment: Enhancement of acetaminophen toxicity by BHA and protection by methionine sulfoxide in hamsters; format: in vivo, hamster
Protocol: Hamsters weighing about 70 gm. each were divided into five groups of animals. […] All deaths occurred within 48 hours. The survivors all were alive one week later when examined again.
Methionine sulfoxide protects the hamsters against the enhanced acetaminophen toxicity up to dosages of about 200 mg/kg of BHA.

hamsters [2] = experiment: Enhancement of acetaminophen toxicity by BHT and protection by methionine sulfoxide in hamsters; format: in vivo, hamster
Protocol: (§1) Hamsters weighing about 70 gm. each were divided into five groups of animals. An aqueous solution (ca. 0.7 ml) of […]. (600 mg/kg) of acetaminophen and an amount of methionine sulfoxide listed in the table below, was administered intraperitoneally to each hamster. All deaths occurred within 48 hours. The survivors all were alive one week later when examined again.
(§2) Following the above procedure, hamsters were given i.p. either 300 mg/kg of acetaminophen or 600 mg/kg BHT.

hamsters [3] = experiment: animal or person; format: in vivo, hamster; details: for % Deaths: deaths within 48 hours; for hamsters protected from the otherwise lethal dosage of acetaminophen: acetaminophen 600 mg/kg i.p.
Protocol: as §1

[4] = test system: man and experimental animals; details: cited from earlier work
[5] = test system: acetaminophen hepatotoxicity; details: cited from earlier work; for effect on acetaminophen hepatotoxicity: J. Kelleher et al.
vitamin E deficient rats = details: cited from earlier work
humans = details: in vivo; cited from earlier work
mice [6] = details: cited from earlier work
mice [7] = details: administered up to one hour after acute toxic amounts of acetaminophen; cited from earlier work
[8] = test system: acetaminophen hepatotoxicity; experiment: Effect of BHT and BHA on hepatotoxicity of acetaminophen (general finding); details: in vivo
From the text: Because the general population consumes large amounts of these chemicals daily, because of their presence in a wide variety of food products, the likelihood of an increased incidence of hepatoxicity in persons taking repeated dosages of acetaminophen is self-evident.

[9] = Enhancement of acetaminophen toxicity by BHT and protection by methionine sulfoxide in hamsters; format: in vivo, hamster; details: hamster, in vivo, ip; i.p. mixture of 300 mg/kg acetaminophen and 600 mg/kg BHT; within 24 hours; read-out: deaths
Protocol: as §1, §2

[10] = test system: hepatotoxicity after an overdose of acetaminophen; details: administered within 16 hours after an overdose of acetaminophen; clinical study; cited from earlier work
inbred mice = details: suggested for humans from studies with inbred mice; cited from earlier work
man = details: vitamin C with acetaminophen, cited from earlier work
[11] = acetaminophen 300 mg/kg i.p. alone
[12] = i.p. mixture of 300 mg/kg acetaminophen and 100 mg/kg BHA, all hamsters

For `C[S+]([O-])CC[C@H](N)C(=O)O` (stereo partly drawn) [methionine sulfoxide], the “coma produced by the combination of acetaminophen and BHA” value (hamsters [1]; methionine sulfoxide treated, survivors) was “manifested even in the survivors”, the “dosage of BHA up to which hamsters are protected against the enhanced acetaminophen toxicity” value (hamsters [1]; methionine sulfoxide with acetaminophen and BHA, value is BHA dosage (up to about)) was “about 200 mg/kg” and the deaths (hamsters [2]; methionine sulfoxide 150 mg/kg concurrently with 300 mg/kg acetaminophen and 600 mg/kg BHT) was “no deaths occurred”. For the same molecule, the ED50 (hamsters [3]; Mesocricetus auratus, ip) was about 65 mg/kg, the “% Deaths” value (hamsters [3]; methionine sulfoxide 50 mg/kg i.p. with acetaminophen 600 mg/kg, 15 animals) was 60% and the “% Deaths” value (hamsters [3]; methionine sulfoxide 100 mg/kg i.p. with acetaminophen 600 mg/kg, 17 animals) was 23.5%. The “hamsters protected from the otherwise lethal dosage of acetaminophen” value (“hamsters protected” below) (hamsters [3]; methionine sulfoxide 100 mg/kg) was “over 75%”, the “% Deaths” value (hamsters [3]; methionine sulfoxide 200 mg/kg i.p. with acetaminophen 600 mg/kg, 17 animals) was 0% and the “hamsters protected” value (hamsters [3]; methionine sulfoxide 200 mg/kg) was “protected all of the hamsters”. The “% Deaths” value (hamsters [3]; methionine sulfoxide 400 mg/kg i.p. with acetaminophen 600 mg/kg, 8 animals) was 0% and the “hamsters protected” value (hamsters [3]; methionine sulfoxide 400 mg/kg) was “protected all of the hamsters”.
In the case of `[Se]` [selenium], the “protection against the hepatotoxicity of acetaminophen” value (from here on “protection against the hepatotoxicity”) [4] is listed as “varying degrees of protection”.
In the case of `Cc1c(C)c2c(c(C)c1O)CCC(C)(CCCC(C)CCCC(C)CCCC(C)C)O2` (stereo not drawn) [vitamin E, α-tocopherol], the “effect on acetaminophen hepatotoxicity” value [5] is listed as “reduce hepatotoxicity”, the “protection against the hepatotoxicity” value [4] is listed as “varying degrees of protection” and the “protection against the hepatotoxic effects of acetaminophen” value (vitamin E deficient rats) is listed as “provides such protection”.
In the case of `CSCC[C@H](N)C(=O)O` [methionine], the “protection against the hepatotoxicity” value [4] is listed as “varying degrees of protection”.
For `CCO` [alcohol], the “potentiation of acetaminophen hepatotoxicity” value (humans) is given as “markedly potentiate the hepatotoxicity”.
In the case of `C[S+](C)[O-]` [Dimethyl sulfoxide], the “protection against CCl4 hepatotoxicity” value (mice [6]) is given as “inability of DMSO to protect mice” and the “protection against the hepatotoxic effects of acetaminophen” value (mice [7]) is given as “protect mice against the hepatotoxic effects of acetaminophen”.
For `Cc1cc(C(C)(C)C)c(O)c(C(C)(C)C)c1` [BHT, butylated hydroxytoluene], the “effect on hepatotoxicity of acetaminophen” value [8] was “profoundly enhance its hepatotoxicity”, the mortality at 24 h [9] was 100% and the deaths (hamsters [2]; BHT 600 mg/kg i.p. alone) was “No deaths occurred”. The “enhancement of acetaminophen toxicity” value (hamsters [2]; i.p. mixture of 300 mg/kg acetaminophen and 600 mg/kg BHT) was “profound enchancement of acetaminophen toxicity”.
In the case of `CCCOC(=O)c1cc(O)c(O)c(O)c1` [propyl gallate], the “effect on acetaminophen hepatotoxicity” value [5] is given as “reduce hepatotoxicity”.
In the case of `N[C@@H](CS)C(=O)O` [cysteine], the “protection against the hepatotoxicity” value [4] is given as “varying degrees of protection”.
In the case of `CC(=O)N[C@@H](CS)C(=O)O` [acetylcysteine], the prevention of hepatotoxicity [10] is given as “effective in preventing hepatotoxicity”.
For `CC(=O)Nc1ccc(O)cc1` [acetaminophen], the hepatic necrosis (humans) is listed as “can cause massive hepatic necrosis”, the deaths (hamsters [1]; [11]) is listed as “no deaths occurred” and the cataracts (inbred mice) is listed as “can cause cataracts in humans”. For the same molecule, the deaths (hamsters [2]; [11]) was “No deaths occurred” and the “% Deaths” value (hamsters [3]; acetaminophen 600 mg/kg i.p. alone (methionine sulfoxide 0), 17 animals) was 94%.
In the case of `O=C1O[C@H]([C@@H](O)CO)C(O)=C1O` [vitamin C, ascorbic acid], the “protection against the hepatotoxic effects of acetaminophen” value ([5]; Raghuram et al.) is given as “may provide such protection”, the “apparent half-life of drug (acetaminophen)” value (man; by rate of secretion in the urine) is given as “did not affect the apparent half-life” and the “excretion rate of acetaminophen sulfate” value (man) is given as “rapid and pronounced decrease”.
For `COc1ccc(O)c(C(C)(C)C)c1` [BHA, butylated hydroxyanisole], the “effect on hepatotoxicity of acetaminophen” value [8] was “profoundly enhance its hepatotoxicity”, the deaths (hamsters [1]; BHA 100-300 mg/kg i.p. alone) was “no deaths occurred” and the incidence of deaths (hamsters [1]; higher amounts of BHA (than 100 mg/kg) with acetaminophen) was “higher incidence of deaths”. For the same molecule, the survival (hamsters [1]; i.p. mixture of 300 mg/kg acetaminophen and 100 mg/kg BHA) was “most survive”, the coma (hamsters [1]; [12]) was “go into a coma” and the time to coma (hamsters [1]; [12]) was 15 to 20 min.
In the case of `NCCS` [cysteamine], the “protection against the hepatotoxicity” value [4] is listed as “varying degrees of protection”.
For dimethylmercaptol, the “protection against the hepatotoxicity” value [4] is given as “varying degrees of protection”.
